This is an account of results in BindingDB's records for doi:10.1016/j.ejmech.2022.114542 (National Institute of Pharmaceutical Education and …, 2022).

A short description of this data set: Inhibition of ABCG2 efflux pump in multi-drug resistance human HL-60 cells assessed as reversal of daunorubicin sensitivity.

In the case of `CO[C@@H]1[C@H](N(C)C(=O)c2ccccc2)C[C@H]2O[C@]1(C)n1c3ccccc3c3c4c(c5c6ccccc6n2c5c31)C(=O)NC4` [PKC-412], the IC50 was 4.44 µM.

What is called IC50 is the midpoint of a concentration-inhibition curve.
